Test results from patent publication US20220220128A1, “HETEROCYCLIC COMPOUNDS AS KINASE INHIBITORS, COMPOSITIONS COMPRISING THE HETEROCYCLIC COMPOUND, AND METHODS OF USE THEREOF” (JS Innopharm (Shanghai) Ltd, priority 2019, published 2022).
Read-outs that look alike come from different tables or passages of the source.

What was measured:
[1] = biological target: T1, human RET kinase (Homo sapiens, UniProt P07949); experiment: RET Kinase Assay (LanthaScreen TR-FRET enzymatic assay); assay type: biochemical; settings: 7 nM RET, 23 μM ATP
T1 construct: purchased Carna 08-159
T1 sequence (P07949 29-1114): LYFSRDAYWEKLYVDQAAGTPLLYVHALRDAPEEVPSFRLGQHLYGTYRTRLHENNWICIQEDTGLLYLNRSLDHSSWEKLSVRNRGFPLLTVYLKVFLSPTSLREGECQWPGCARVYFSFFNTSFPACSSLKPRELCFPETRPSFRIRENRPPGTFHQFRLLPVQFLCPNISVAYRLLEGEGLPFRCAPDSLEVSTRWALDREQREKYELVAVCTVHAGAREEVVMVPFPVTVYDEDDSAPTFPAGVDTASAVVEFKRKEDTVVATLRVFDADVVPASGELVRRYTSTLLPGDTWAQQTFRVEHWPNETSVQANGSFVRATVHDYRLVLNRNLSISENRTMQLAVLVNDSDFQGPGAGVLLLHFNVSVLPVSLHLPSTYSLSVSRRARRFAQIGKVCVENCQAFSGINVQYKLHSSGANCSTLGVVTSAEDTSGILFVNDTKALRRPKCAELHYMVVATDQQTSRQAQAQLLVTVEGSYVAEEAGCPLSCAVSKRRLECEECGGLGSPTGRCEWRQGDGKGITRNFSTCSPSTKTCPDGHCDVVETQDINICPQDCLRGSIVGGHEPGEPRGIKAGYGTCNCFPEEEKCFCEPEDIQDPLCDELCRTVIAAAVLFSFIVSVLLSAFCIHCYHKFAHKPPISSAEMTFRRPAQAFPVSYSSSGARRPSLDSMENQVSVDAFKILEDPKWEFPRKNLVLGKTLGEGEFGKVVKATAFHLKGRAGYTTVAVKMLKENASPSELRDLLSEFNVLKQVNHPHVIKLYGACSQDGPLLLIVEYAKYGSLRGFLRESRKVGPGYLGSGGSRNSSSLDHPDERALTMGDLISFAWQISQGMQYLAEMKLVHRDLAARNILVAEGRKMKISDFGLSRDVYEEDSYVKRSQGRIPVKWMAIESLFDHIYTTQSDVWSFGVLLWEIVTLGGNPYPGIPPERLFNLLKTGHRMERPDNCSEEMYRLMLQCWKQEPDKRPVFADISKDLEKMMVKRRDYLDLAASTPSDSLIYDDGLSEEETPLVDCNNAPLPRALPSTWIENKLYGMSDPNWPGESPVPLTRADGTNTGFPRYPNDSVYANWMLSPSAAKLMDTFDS
Method in brief: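 TR-FRET enzymatic read-out using 23 μM ATP, 3 μM FAM-P2 substrate and 7 nM human RET, after 15-min compound pretreatment at room temperature and a 1 h reaction at 28° C in HEPES pH 7.5 buffer. Percent of DMSO control fitted to nonlinear sigmoid curves for IC50.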

[2] = biological target: T2, human KDR kinase (Homo sapiens, UniProt P35968); experiment: KDR Kinase Assay (LanthaScreen TR-FRET enzymatic assay); assay type: biochemical; settings: 1.2 nM KDR, 92 μM ATP
T2 construct: purchased Carna 08-191
T2 sequence (P35968 20-1356): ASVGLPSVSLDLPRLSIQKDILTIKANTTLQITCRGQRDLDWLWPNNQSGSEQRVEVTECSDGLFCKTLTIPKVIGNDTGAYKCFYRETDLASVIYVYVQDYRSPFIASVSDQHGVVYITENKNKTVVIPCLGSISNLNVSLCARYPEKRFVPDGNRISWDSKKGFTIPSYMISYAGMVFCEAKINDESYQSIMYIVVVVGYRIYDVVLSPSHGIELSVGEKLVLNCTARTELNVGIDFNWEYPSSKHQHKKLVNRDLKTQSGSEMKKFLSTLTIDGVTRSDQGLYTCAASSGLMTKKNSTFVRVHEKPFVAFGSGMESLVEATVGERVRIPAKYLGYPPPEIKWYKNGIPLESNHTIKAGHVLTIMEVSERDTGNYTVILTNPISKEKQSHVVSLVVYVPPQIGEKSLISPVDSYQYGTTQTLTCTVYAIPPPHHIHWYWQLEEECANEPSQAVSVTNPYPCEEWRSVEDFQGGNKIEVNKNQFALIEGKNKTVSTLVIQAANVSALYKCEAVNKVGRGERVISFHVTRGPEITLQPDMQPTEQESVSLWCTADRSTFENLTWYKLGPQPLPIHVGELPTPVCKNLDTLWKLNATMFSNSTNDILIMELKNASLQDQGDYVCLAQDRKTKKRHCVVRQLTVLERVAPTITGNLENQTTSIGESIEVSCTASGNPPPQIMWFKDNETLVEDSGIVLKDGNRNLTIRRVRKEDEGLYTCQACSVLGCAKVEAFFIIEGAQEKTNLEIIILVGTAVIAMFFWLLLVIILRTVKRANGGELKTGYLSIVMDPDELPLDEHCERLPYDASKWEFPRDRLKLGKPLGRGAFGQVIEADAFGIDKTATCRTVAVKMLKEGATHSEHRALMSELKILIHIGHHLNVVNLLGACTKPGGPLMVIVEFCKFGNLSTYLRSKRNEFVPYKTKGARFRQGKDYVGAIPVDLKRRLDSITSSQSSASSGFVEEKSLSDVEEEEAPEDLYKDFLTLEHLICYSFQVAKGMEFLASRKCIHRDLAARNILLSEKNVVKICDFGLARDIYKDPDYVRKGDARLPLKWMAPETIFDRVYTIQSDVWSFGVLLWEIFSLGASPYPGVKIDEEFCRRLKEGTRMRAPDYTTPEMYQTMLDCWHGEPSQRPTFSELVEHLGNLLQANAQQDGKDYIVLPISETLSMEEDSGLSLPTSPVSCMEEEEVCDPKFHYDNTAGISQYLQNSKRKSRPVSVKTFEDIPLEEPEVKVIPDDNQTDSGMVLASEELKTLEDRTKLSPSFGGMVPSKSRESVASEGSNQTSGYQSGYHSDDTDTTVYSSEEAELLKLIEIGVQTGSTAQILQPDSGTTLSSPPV
Method in brief: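 TR-FRET enzymatic format: after 15-min room-temperature compound pretreatment, 1.2 nM human KDR phosphorylated 3 μM FAM-P22 with 92 μM ATP (HEPES pH 7.5, 28° C., one hour). Reactions were quenched with EDTA buffer. IC50 came from nonlinear sigmoid fits of percent-of-vehicle signal ratios.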

[3] = system: TT cells; experiment: TT Cell Proliferation Assay (WST-8, 8 days); assay type: cell-based; settings: growth inhibition in TT cells, read-out: TT Cellular Activity
Method in brief: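 IC50 was derived from absorbance at 450 nm after 5 h with WST-8, following 8 days' incubation at 37 °C. Final compound levels spanned 0.0005–5 μM in 0.5% DMSO. TT cells were seeded at 6,000 per well in 10% FBS RPMI-1640 and left to attach for 24 h beforehand.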

| Compound | IC50 [1] [µM] | IC50 [2] [µM] | IC50 ([3]; Homo sapiens, TT, 192 h) [µM] | IC50 [3] [µM] |
| --- | --- | --- | --- | --- |
| COc1ccc(NC(=O)N[C@H]2[C@@H]3CN(c4ccc(-c5cc(-c6cnn(C)c6)cn6ncc(C#N)c56)cn4)C[C@@H]32)cn1 [Example 45, 1-((1R,5S,6s)-3-(5-(3-cyano-6-(1-methyl-1H-pyrazol-4-yl)pyrazolo[1,5-a]pyridin-4-yl)pyridin-2-yl)-3-azabicyclo[3.1.0]hexan-6-yl)-3-(6-methoxypyridin-3-yl)urea] | ≤ 0.01 | ≤ 0.01 | 0.05 to 0.1 | – |
| CCOc1cc(-c2ccc(N3C[C@@H]4C[C@@](C)(NC(=O)CC(C)C)C[C@@H]4C3)nc2)c2c(C#N)cnn2c1 [Example 62, N-((3aR,5s,6aS)-2-(5-(3-cyano-6-ethoxypyrazolo[1,5-a]pyridin-4-yl)pyridin-2-yl)-5-methyloctahydrocyclopenta[c]pyrrol-5-yl)-3-methylbutanamide] | ≤ 0.01 | 0.05 to 0.1 | 0.01 to 0.05 | – |
| COc1ccc(CN2C[C@@H]3CN(c4ccc(-c5cc(-c6ccn(C)n6)cn6ncc(C#N)c56)cn4)C[C@@H]3C2)cn1 [Example 13, 4-(6-((3aR,6aS)-5-((6-methoxypyridin-3-yl)methyl)hexahydropyrrolo[3,4-c]pyrrol-2(1H)-yl)pyridin-3-yl)-6-(1-methyl-1H-pyrazol-3-yl)pyrazolo[1,5-a]pyridine-3-carbonitrile] | ≤ 0.01 | 0.01 to 0.05 | 0.01 to 0.05 | – |
| Cn1cc(-c2cc(-c3ccc(N4C[C@@H]5[C@H](C4)[C@@H]5NC(=O)Nc4ccccc4)nc3)c3c(C#N)cnn3c2)cn1 [Example 36, 1-((1R,5S,6r)-3-(5-(3-cyano-6-(1-methyl-1H-pyrazol-4-yl)pyrazolo[1,5-a]pyridin-4-yl)pyridin-2-yl)-3-azabicyclo[3.1.0]hexan-6-yl)-3-phenylurea] | ≤ 0.01 | ≤ 0.01 | 0.01 to 0.05 | – |
| COc1cc(-c2ccc(N3C[C@@H]4[C@H](C3)[C@H]4NC(=O)c3ncccc3Cl)nc2)c2c(C#N)cnn2c1 [Example 39, 3-chloro-N-((1R,5S,6s)-3-(5-(3-cyano-6-methoxypyrazolo[1,5-a]pyridin-4-yl)pyridin-2-yl)-3-azabicyclo[3.1.0]hexan-6-yl)picolinamide] | 0.05 to 0.1 | > 0.1 | > 0.1 | – |
| CC(C)(O)COc1cc(-c2ccc(N3C[C@@H]4[C@H](C3)[C@H]4NS(=O)(=O)c3c(F)cccc3Cl)nc2)c2c(C#N)cnn2c1 [Example 47, 2-chloro-N-((1R,5S,6s)-3-(5-(3-cyano-6-(2-hydroxy-2-methylpropoxy)pyrazolo[1,5-a]pyridin-4-yl)pyridin-2-yl)-3-azabicyclo[3.1.0]hexan-6-yl)-6-fluorobenzene-sulfonamide] | ≤ 0.01 | 0.01 to 0.05 | 0.01 to 0.05 | – |
| COc1ccc(C(=O)N[C@]2(C)C[C@H]3CN(c4ccc(-c5cc(OCC(C)(C)O)cn6ncc(C#N)c56)cn4)C[C@H]3C2)cn1 [Example 126, N-((3aR,5s,6aS)-2-(5-(3-cyano-6-(2-hydroxy-2-methylpropoxy)pyrazolo[1,5-a]pyridin-4-yl)pyridin-2-yl)-5-methyloctahydrocyclopenta[c]pyrrol-5-yl)-6-methoxynicotinamide] | 0.01 to 0.05 | 0.01 to 0.05 | 0.05 to 0.1 | – |
| CC(C)C(O)C(=O)N[C@H]1[C@@H]2CN(c3ccc(-c4cc(-c5cnn(C)c5)cn5ncc(C#N)c45)cc3)C[C@@H]21 (stereo partly drawn) [Example 16, N-((1R,5S,6s)-3-(4-(3-cyano-6-(1-methyl-1H-pyrazol-4-yl)pyrazolo[1,5-a]pyridin-4-yl)phenyl)-3-azabicyclo[3.1.0]hexan-6-yl)-2-hydroxy-3-methylbutanamide] | ≤ 0.01 | 0.01 to 0.05 | 0.01 to 0.05 | – |
| Cn1ccc(-c2cc(-c3ccc(N4C[C@@H]5C[C@@](C)(NS(=O)(=O)c6c(F)cccc6Cl)C[C@@H]5C4)nc3)c3c(C#N)cnn3c2)n1 [Example 178, 2-chloro-N-((3aR,5s,6aS)-2-(5-(3-cyano-6-(1-methyl-1H-pyrazol-3-yl)pyrazolo[1,5-a]pyridin-4-yl)pyridin-2-yl)-5-methyloctahydrocyclopenta[c]pyrrol-5-yl)-6-fluorobenzenesulfonamide] | ≤ 0.01 | 0.01 to 0.05 | ≤ 0.01 | – |

Continued, in another order:

| IC50 [1] [µM] | IC50 [2] [µM] | Compound | IC50 ([3]; Homo sapiens, TT, 192 h) [µM] | IC50 [3] [µM] |
| --- | --- | --- | --- | --- |
| ≤ 0.01 | ≤ 0.01 | Cc1cccc(Cl)c1C(=O)N[C@H]1[C@@H]2CN(c3ccc(-c4cc(-c5cnn(C)c5)cn5ncc(C#N)c45)cn3)C[C@@H]21 [Example 23, 2-chloro-N-((1R,5S,6s)-3-(5-(3-cyano-6-(1-methyl-1H-pyrazol-4-yl)pyrazolo[1,5-a]pyridin-4-yl)pyridin-2-yl)-3-azabicyclo[3.1.0]hexan-6-yl)-6-methylbenzamide] | ≤ 0.01 | – |
| ≤ 0.01 | ≤ 0.01 | Cc1cccc(Cl)c1C(=O)NC[C@@H]1[C@H]2CN(c3ccc(-c4cc(-c5cnn(C)c5)cn5ncc(C#N)c45)cn3)C[C@@H]12 [Example 84, 2-chloro-N-(((1R,5S,6s)-3-(5-(3-cyano-6-(1-methyl-1H-pyrazol-4-yl)pyrazolo[1,5-a]pyridin-4-yl)pyridin-2-yl)-3-azabicyclo[3.1.0]hexan-6-yl)methyl)-6-methylbenzamide] | – | ≤ 0.01 |
| ≤ 0.01 | ≤ 0.01 | Cc1cccc(Cl)c1C(=O)NC[C@@H]1[C@H]2CN(c3ccc(-c4cc(-c5cnn(C)c5)cn5ncc(C#N)c45)cn3)C[C@@H]12 [Example 185, 2-chloro-N-(((1R,5S,6s)-3-(5-(3-cyano-6-(1-methyl-1H-pyrazol-4-yl)pyrazolo[1,5-a]pyridin-4-yl)pyridin-2-yl)-3-azabicyclo[3.1.0]hexan-6-yl)methyl)-6-methylbenzamide] | 0.01 to 0.05 | – |
| ≤ 0.01 | 0.01 to 0.05 | Cc1ccc(Cl)c(C(=O)N[C@H]2[C@@H]3CN(c4ccc(-c5cc(-c6cnn(C)c6)cn6ncc(C#N)c56)cn4)C[C@@H]32)n1 [Example 27, 3-chloro-N-((1R,5S,6s)-3-(5-(3-cyano-6-(1-methyl-1H-pyrazol-4-yl)pyrazolo[1,5-a]pyridin-4-yl)pyridin-2-yl)-3-azabicyclo[3.1.0]hexan-6-yl)-6-methylpicolinamide] | 0.01 to 0.05 | – |
| ≤ 0.01 | ≤ 0.01 | Cn1cc(-c2cc(-c3ccc(N4C[C@@H]5[C@H](C4)[C@H]5NC(=O)c4c(F)cccc4Cl)nc3)c3c(C#N)cnn3c2)cn1 [Example 24, 2-chloro-N-((1R,5S,6s)-3-(5-(3-cyano-6-(1-methyl-1H-pyrazol-4-yl)pyrazolo[1,5-a]pyridin-4-yl)pyridin-2-yl)-3-azabicyclo[3.1.0]hexan-6-yl)-6-fluorobenzamide] | 0.01 to 0.05 | – |
| ≤ 0.01 | ≤ 0.01 | Cn1cc(-c2cc(-c3ccc(N4C[C@@H]5[C@@H](CNC(=O)c6ncccc6C(F)(F)F)[C@@H]5C4)nc3)c3c(C#N)cnn3c2)cn1 [Example 186, N-(((1R,5S,6s)-3-(5-(3-cyano-6-(1-methyl-1H-pyrazol-4-yl)pyrazolo[1,5-a]pyridin-4-yl)pyridin-2-yl)-3-azabicyclo[3.1.0]hexan-6-yl)methyl)-3-(trifluoromethyl)picolinamide] | ≤ 0.01 | – |
